This is an account of results in paper PMC5684506 (BioImpacts : BI, 2017).

The target of this test is T1, bovine liver catalase (BLC) (Bos taurus, UniProt P00432).
T1 sequence (P00432 2-527): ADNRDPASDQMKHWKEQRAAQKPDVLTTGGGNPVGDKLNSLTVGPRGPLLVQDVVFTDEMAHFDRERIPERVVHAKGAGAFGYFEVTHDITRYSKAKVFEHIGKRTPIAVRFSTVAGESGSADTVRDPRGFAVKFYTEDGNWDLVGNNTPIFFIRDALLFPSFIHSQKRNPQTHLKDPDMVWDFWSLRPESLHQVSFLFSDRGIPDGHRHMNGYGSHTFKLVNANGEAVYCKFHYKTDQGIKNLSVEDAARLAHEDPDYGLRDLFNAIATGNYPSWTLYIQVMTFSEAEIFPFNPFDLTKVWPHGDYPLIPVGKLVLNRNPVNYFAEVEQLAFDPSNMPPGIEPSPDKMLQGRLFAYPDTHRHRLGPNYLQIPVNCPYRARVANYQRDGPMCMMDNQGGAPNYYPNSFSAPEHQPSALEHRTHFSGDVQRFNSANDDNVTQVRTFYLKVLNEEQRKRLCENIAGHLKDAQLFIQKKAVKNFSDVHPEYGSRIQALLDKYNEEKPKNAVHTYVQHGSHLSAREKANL
Put plainly: UV assay of H2O2 decomposition at […] nm with Lineweaver-Burk analysis. Type of test: biochemical.

Regarding `O=c1c(O)c(-c2ccc(O)c(O)c2)oc2cc(O)cc(O)c12` [QUE, 3,5,7,3ʹ,4ʹ-pentahydroxyflavone], the Ki (in general, a measure of affinity in units of concentration, obtained from inhibition or displacement) amounted to 46 µM.
